Laboratory results from a melting point compilation (Tetko et al.).

| Compound | melting point |
| --- | --- |
| Cc1c(Cl)c(C)c([N+](=O)[O-])c(O)c1Cl | 227 to 229 °C |
| O=[N+]([O-])c1ccc(C=NO)o1 | 163 °C |
| CCOC(=O)[C@]12C[C@@H](c3ccccc3)c3ccccc3[C@H]1c1ccccc1OC2=O | 162 °C |
| CNC(=NCCSCc1nc[nH]c1C)NC#N | 141 °C |
| Clc1cc(Br)ccc1Br | 40 °C |
| O=C1Nc2ccccc2C12OCCO2 | 125 to 128 °C |
| FC(F)(F)c1ccc(N2CCOCC2)c(CCl)c1 | 52 to 54 °C |
| COc1cc(C(=O)NN)cc(OC)c1O | 156 °C |
| O=C(O)CNC(=O)CCl | 102 °C |
| O=[N+]([O-])c1cc(Br)ccc1O | 92 °C |
| c1cc(-c2nnn[nH]2)ccn1 | 265 to 267 °C |
| O=C(Cl)c1ccc(N2CCOCC2)nc1 | 158 to 159 °C |
| CCC(=O)c1ccc(O)c(C)c1O | 128 to 130 °C |
| C#CC1(O)CCC2C3C(C)CC4=C(CCC(=O)C4)C3CCC21C (configuration not stated) | 167 °C |
| C/C=C/C(=O)O | 72 °C |
| O=C(O)Cc1ccccc1[N+](=O)[O-] | 141 °C |
| CCC(Cl)C(C)Cl (configuration not stated) | -77.3 °C |
| Oc1cc2c(cc1O)CCN=C2 | 244 to 248 °C |
| COc1ccc(CC#N)cc1Br | 52 °C |
| Cc1ccc(I)cc1F | 23 °C |
| NC(=O)NCc1ccc(F)cc1 | 172 to 175 °C |
| c1ccc2c3c([nH]c2c1)CCCCC3 | 145 °C |
| Clc1cc2c(c(Cl)c1Cl)Oc1c(cc(Cl)c(Cl)c1Cl)O2 | 243 °C |
| O=C1CN2CCOC2(c2ccccc2F)c2cc(Br)ccc2N1 (configuration not stated) | 185 °C |
| Cc1ccc(Oc2ncccc2N)c2c1CCC2 | 150 °C |

| Compound | melting point |
| --- | --- |
| CCc1cccc(C)c1N | -25 °C |
| CCOC(=O)c1ccc(O)c(O)c1 | 134 °C |
| OCc1ccc(I)c(O)c1 | 148 °C |
| Oc1ccccc1N1CCNCC1 | 125 °C |
| Fc1ccc(C2CCNCC2COc2ccc3c(c2)OCO3)cc1 (configuration not stated) | 130 °C |
| C=CCCCCCCCCC | -49.2 °C |
| Cc1ccccc1NC(=O)C(C(F)(F)F)C(F)(F)F | 193 to 195 °C |
| CCC(Br)C(=O)O (configuration not stated) | -4 °C |
| C=CCOc1ccc(NC(C)=O)cc1 | 90 to 92 °C |
| O=C(O)c1ccccc1OC(F)(F)F | 79 °C |
| O=C(O)C1(C(=O)O)CC1 | 134 to 138 °C |
| CNC(=O)C=C(C)OP(=O)(OC)OC | 55 °C |
| NC(=O)c1sccc1Br | 78 °C |
| OC(c1ccccc1)(c1ccccc1)[C@H]1CCCN1 | 77 to 81 °C |
| COS(=O)(=O)c1ccc([N+](=O)[O-])cc1 | 94 °C |
| O=C(O)C=Cc1cccc(C=CC(=O)O)c1 | 280 °C |
| Brc1ccsc1Br | -17.5 °C |
| CCC(C)C(N)P(=O)(O)O (configuration not stated) | 274 °C |
| CC12CCC(C(CC(N)=O)C1=O)C2(C)C (configuration not stated) | 101 °C |
| O=C(NC1CCCCC1)c1ccccc1 | 145 °C |
| CCOC(=O)C(Cl)=Cc1cc(N2C(=O)C3=C(CCCC3)C2=O)ccc1Cl | 112 °C |
| COC(=O)c1sccc1S(=O)(=O)NC(=O)Nc1nc(C)nc(OC)n1 | 176 °C |
| CC1(C)OC(c2ccco2)CN1C(=O)C(Cl)Cl (configuration not stated) | 97 °C |
| Cn1ccc2c(C=O)cccc21 | 27 to 29 °C |
| O=C(O)c1cncc(C(=O)O)c1 | 324 °C |

| Compound | melting point |
| --- | --- |
| O=C(O)C(=O)c1ccc([N+](=O)[O-])cc1 | 110 °C |
| CCN(CC)c1nc(C)cc(OP(=S)(OC)OC)n1 | 21 °C |
| Cc1ccc(C(=O)O)cc1C(F)(F)F | 177 °C |
| OC1C2CCC1C1C=CC2O1 (configuration not stated) | 121 to 123 °C |
| CC(C)(C#N)OC1OC(CO)C(O)C(O)C1O (configuration not stated) | 145 °C |
| COC(=O)c1ccc(C(C)=O)cc1 | 93 to 95 °C |
| CCOC(=O)c1cc(-c2ccco2)on1 | 49 to 50 °C |
| O=C(O)CSc1ncccn1 | 200 to 203 °C |
| CCCCCCCCCCCCCCCCCC(=O)OC1CCC2(C)C(=CCC3C2CCC2(C)C(C(C)CCCC(C)C)CCC32)C1 (configuration not stated) | 79 to 83 °C |
| NCCCNCCCN | -14 °C |
| Nc1nncs1 | 191 °C |
| CC(C)(C)c1cc(C(=O)NN)[nH]n1 | 177 to 181 °C |
| NC(=O)c1sccc1N | 120 to 122 °C |
| CC(=O)OCOC(=O)C1N2C(=O)C(NC(=O)Cc3ccccc3)C2SC1(C)C (configuration not stated) | 107 °C |
| C#CC(C)(C)N | 18 °C |
| CCOC(=O)c1ccc(NC)c(N)c1 | 87 to 88 °C |
| Cc1cc(C)c(Br)c(C)c1N | 36 °C |
| CNc1nnc(S)s1 | 190 to 193 °C |
| CN(C)NC(=O)CCC(=O)O | 158 to 162 °C |
| CCCC(O)C(O)(CC)C1CCCCC1 (configuration not stated) | 78 °C |
| COc1ccc(N=C=S)c(OC)c1 | 52 °C |
| Oc1c(Cl)c(Cl)cc(Cl)c1Cl | 115 °C |
| COc1cc(CC(=O)O)ccc1Br | 104 °C |
| NC(=S)NCCCN1CCOCC1 | 129 to 131 °C |

Further lines, results first:

| melting point | Compound |
| --- | --- |
| 241 °C | O=C1c2ccccc2C(=O)C1c1ccc2ccccc2n1 |
| 160 °C | Cc1nn(-c2ccccc2)nc1C(=O)NO |
| 166 to 167 °C | O=C(C=Cc1cccc([N+](=O)[O-])c1)c1ccc(F)cc1 |
| 116 °C | COc1ccc(CCc2cc(OC)c3ccccc3n2)cc1OC |
| 102 °C | CCCCCCCc1ccc(NC(=O)c2ccc(CC)cc2)cc1 |
| 83 to 84 °C | Cc1oc(-c2ccccc2)nc1CCl |
| 51 to 53 °C | O=C=Nc1cccc(COc2ccccc2)c1 |
| 106 to 108 °C | COc1ccc(C(=O)C=Cc2ccccc2)c(O)c1 |
| 59 °C | O=Cc1ccc(Cl)cc1F |
| 179 to 180 °C | CCOC(=O)NN(C(=O)OCC)c1c(-c2ccccc2)nc2n1CCS2 |
| 66 °C | O=C(c1ccccc1)c1ccc(C(F)(F)F)c(F)c1 |
| 103 to 105 °C | O=Cc1csc(-c2ccc(C(F)(F)F)cc2)n1 |
| 109 °C | Cc1cc(N=Nc2ccccc2)ccc1N=Nc1ccccc1 |
| 85 °C | Cc1ccc2oc(CCC(C)(O)c3ccccc3)c(-c3ccc(C)o3)c2c1 (configuration not stated) |
| 123 °C | CN(C)c1ccccc1-c1ccccc1P(C1CCCCC1)C1CCCCC1 |
| 122 to 124 °C | O=[N+]([O-])c1ccc(Oc2ccc(N=C=S)cc2)cc1 |
| 30 °C | Cc1cccc(Nc2ccccc2)c1 |
| 208 °C | CC1(C)C(C=Cc2cc(Br)cc([N+](=O)[O-])c2[O-])=[N+](Cc2ccccc2)c2ccccc21 |
| 237 to 238 °C | Cc1ccc2cc3nc(C)ccc3cc2n1 |
| 243 °C | O=C(NNC(=S)NCc1ccccc1)C(=O)c1c[nH]c2ccccc12 |

| melting point | Compound |
| --- | --- |
| 158 to 160 °C | Clc1ccc(-c2cn3c(n2)sc2ccccc23)cc1 |
| 180 °C | NC(=O)C[C@H](NC(=O)OCC1c2ccccc2-c2ccccc21)C(=O)O |
| 188 °C | Cc1c(F)ccc(C(=O)O)c1Cl |
| 106 °C | Ic1cccc2cccc(I)c12 |
| 196 to 197 °C | N#Cc1cc(-c2ccccc2)oc1N |
| 170 °C | NNc1cnn(-c2ccccc2)c(=O)c1Cl |
| 120 to 121 °C | Cc1nc(-c2ccc(Cl)cc2)sc1C(=O)CBr |
| 151 °C | O=C(CNc1ccc(NCC(=O)c2ccccc2)cc1)c1ccccc1 |
| 150 °C | N#C/C(=C\c1ccc(Cl)cc1)c1nc2ccccc2s1 |
| 47 °C | O=Cc1ccc(Cl)c(F)c1 |
| 239 °C | BrC(c1ccccc1)C(Br)c1ccccc1 (configuration not stated) |
| 99 to 102 °C | CN1C(c2cccnc2)N(C)[C@@H](c2ccccc2)[C@@H]1c1ccccc1 |
| 102 to 103 °C | CC(=O)NC(C)c1ccccc1 (configuration not stated) |
| 255 °C | Oc1cccc(O)c1Cc1c(O)cccc1O |
| 173 °C | C[Si]1(C)Oc2ccc3ccccc3c2-c2c(ccc3ccccc23)O[Si](C)(C)O1 |
| 249 °C | O=Nc1c(-c2ccc3ccccc3c2)nc2ncccn12 |
| 230 °C | O=C(O)c1ccc(-c2csnn2)cc1 |
| 132 °C | Cc1ccc(O)c(-n2nc3ccccc3n2)c1 |
| 150 °C | O=C(O)Cc1cn(-c2ccccc2)nc1-c1ccc(Cl)cc1 |
| 89 to 91 °C | CC(=O)CS(=O)(=O)c1ccc(Cl)cc1 |

| melting point | Compound |
| --- | --- |
| 192 °C | O=[N+]([O-])c1ccc(C=Cc2ccc([N+](=O)[O-])cc2S(=O)(=O)Oc2ccccc2)c(S(=O)(=O)Oc2ccccc2)c1 |
| 61 °C | Cn1cnc2ccccc21 |
| 46.5 °C | c1ccc2nn(C3CCCCC3)nc2c1 |
| 126 °C | O=C1c2ccccc2-c2ccc(Cl)cc21 |
| 118 °C | COc1ccc(N/N=C(/C(=O)c2cccc3ccccc23)S(=O)(=O)c2ccccc2)cc1 |
| 261 to 263 °C | Cn1c(CN)nc2ccccc21 |
| 118 to 119 °C | O=C(O)c1cccc(COc2ccccc2)c1 |
| 230 to 232 °C | O=[N+]([O-])c1ccc(-n2cc([N+](=O)[O-])c(-c3ccccc3)n2)cc1 |
| 63 °C | c1ccc(-c2cccs2)nc1 |
| 320 °C | Nn1c(S)nnc1-c1ccc(Cl)cc1 |
| 70 °C | O=CC(Br)=Cc1ccccc1 |
| 35 to 36 °C | OCc1ccc2occc2c1 |
| 224 to 229 °C | O=C(Nc1ccc2cc(OC(=O)c3ccccc3)ccc2c1)c1ccccc1 |
| 152 °C | O=C(O)c1c(F)ccc(F)c1O |
| 214 to 217 °C | COc1cc2c(cc1OC)C(C#N)N(C(=O)c1ccccc1)CC2 (configuration not stated) |
| 86 to 87 °C | O=S(=O)(Cl)c1csc(C(F)(F)F)c1-c1ccccc1 |
| 42 to 44 °C | CC(=O)c1ccc(F)c(Cl)c1 |
| 261 °C | Cn1c(=O)c(C2=NNC(=O)C2=Cc2cccc([N+](=O)[O-])c2)c(O)c2ccccc21 |
